Non-standard residues stand in square brackets, D forms with d. Residues, ends and D or L forms follow the SMILES beside them. pY = N[C@@H](Cc1ccc(OP(=O)(O)O)cc1)C(=O)O
Assays:
Experiment in all cases: biochemical
Assay type in all cases: binding
MATK = target: T1, MATK (Homo sapiens, UniProt P42679)
T1 construct: the DNA-tagged SH2 domain concentrations used in this study were <0.1 nM; made in house; host or cells: HEK293 (transient transfection, unpurified extract)
T1 sequence (P42679 122-211 limits assumed): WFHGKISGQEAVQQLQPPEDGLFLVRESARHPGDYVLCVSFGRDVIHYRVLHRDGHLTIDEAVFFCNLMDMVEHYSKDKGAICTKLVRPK

SHB = target: T2, SHB (Homo sapiens, UniProt Q15464)
T2 construct: made in house; host or cells: HEK293 (transient transfection), unpurified extract
T2 sequence (Q15464 whole entry): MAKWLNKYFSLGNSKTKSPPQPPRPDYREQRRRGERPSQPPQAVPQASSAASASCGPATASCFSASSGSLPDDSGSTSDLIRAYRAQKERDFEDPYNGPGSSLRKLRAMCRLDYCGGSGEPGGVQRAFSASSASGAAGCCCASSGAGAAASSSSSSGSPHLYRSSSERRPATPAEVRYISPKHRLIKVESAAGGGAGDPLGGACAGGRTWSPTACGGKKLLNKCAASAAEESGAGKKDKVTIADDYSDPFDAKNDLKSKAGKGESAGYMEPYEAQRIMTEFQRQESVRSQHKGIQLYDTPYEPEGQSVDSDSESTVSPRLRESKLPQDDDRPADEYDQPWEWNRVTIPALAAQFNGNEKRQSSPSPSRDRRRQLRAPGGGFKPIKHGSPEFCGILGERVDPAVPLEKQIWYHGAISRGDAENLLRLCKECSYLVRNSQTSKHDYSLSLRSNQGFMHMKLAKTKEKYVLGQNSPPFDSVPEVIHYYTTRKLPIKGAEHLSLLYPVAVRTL

SH2B (SH2B1) = target: T3, SH2B (SH2B1) (Homo sapiens, UniProt Q9NRF2)
T3 construct: made in house; host or cells: HEK293 (transient transfection), unpurified extract

RASA1(SH2dom.N-term.) = target: T4, RASA1(SH2dom.N-term.) (Homo sapiens, UniProt P20936)
T4 construct: SH2dom.N-term. denotes SH2 domain closest to N-terminus of protein; made in house; host or cells: HEK293 (transient transfection), unpurified extract
T4 sequence (P20936 181-272 limits assumed): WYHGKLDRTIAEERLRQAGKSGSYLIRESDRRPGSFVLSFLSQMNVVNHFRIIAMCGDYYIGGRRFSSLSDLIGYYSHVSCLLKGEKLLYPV

FGR = target: T5, FGR (Homo sapiens, UniProt P09769)
T5 construct: the DNA-tagged SH2 domain concentrations used in this study were <0.1 nM; made in house; host or cells: HEK293 (transient transfection; unpurified extract)
T5 sequence (P09769 144-241 limits assumed): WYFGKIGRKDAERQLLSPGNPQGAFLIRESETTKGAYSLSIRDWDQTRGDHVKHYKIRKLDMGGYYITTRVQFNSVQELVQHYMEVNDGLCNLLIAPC

LYN = target: T6, LYN (Homo sapiens, UniProt P07948)
T6 construct: the DNA-tagged SH2 domain concentrations used in this study were <0.1 nM; made in house; host or cells: HEK293 (transient transfection, unpurified extract)
T6 sequence (P07948 129-226 limits assumed): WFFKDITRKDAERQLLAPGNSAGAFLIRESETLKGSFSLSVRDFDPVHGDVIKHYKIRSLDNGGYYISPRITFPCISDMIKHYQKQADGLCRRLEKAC

SH2D1B = target: T7, SH2D1B (Homo sapiens, UniProt O14796)
T7 construct: made in house; host or cells: HEK293 (transient transfection), unpurified extract
T7 sequence (O14796 1-132): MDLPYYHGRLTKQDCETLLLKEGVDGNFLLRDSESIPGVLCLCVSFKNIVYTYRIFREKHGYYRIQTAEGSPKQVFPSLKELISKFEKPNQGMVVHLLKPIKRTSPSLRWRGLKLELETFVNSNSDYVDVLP

CC[C@H](C)[C@H](NC(=O)[C@H](CS)NC(=O)[C@H](CCCNC(=N)N)NC(C)=O)C(=O)N[C@@H](CC(N)=O)C(=O)N[C@@H](Cc1ccc(OP(=O)(O)O)cc1)C(=O)N[C@H](C(=O)N[C@@H](Cc1ccccc1)C(=O)N[C@@H](Cc1ccccc1)C(=O)N1CCC[C@H]1C(=O)N[C@@H](CO)C(=O)N[C@@H](CC(C)C)C(=O)N[C@@H](CCCCN)C(=O)N1CCC[C@H]1C(=O)N[C@@H](CO)C(=O)N[C@@H](CO)C(N)=O)C(C)C
Kd (MATK): 555 ± 128 nM

CC[C@H](C)[C@H](NC(=O)[C@H](CC(N)=O)NC(=O)[C@@H](NC(=O)[C@H](Cc1ccc(OP(=O)(O)O)cc1)NC(=O)[C@H](CCC(=O)O)NC(=O)CNC(=O)[C@@H]1CCCN1C(=O)[C@H](CO)NC(C)=O)C(C)C)C(=O)N[C@@H](CCC(=O)O)C(=O)N[C@@H](Cc1ccccc1)C(=O)NCC(N)=O [Ac-SPGEpYVNIEFG-NH2]
Kd (SHB): 6030 ± 1090 nM
Kd (SH2B (SH2B1)): 4460 ± 615 nM

CC[C@H](C)[C@H](NC(=O)[C@H](CC(N)=O)NC(=O)[C@H](CCC(=O)O)NC(=O)[C@H](CCC(=O)O)NC(=O)[C@H](CCC(=O)O)NC(C)=O)C(=O)N[C@@H](Cc1ccc(OP(=O)(O)O)cc1)C(=O)N[C@@H](CO)C(=O)N[C@H](C(=O)N1CCC[C@H]1C(=O)N[C@@H](Cc1c[nH]cn1)C(=O)N[C@@H](CC(=O)O)C(=O)N[C@@H](CO)C(=O)N[C@H](C(N)=O)[C@@H](C)O)C(C)C (Ac-EEENI[pY]SVPHDST-NH2)
Kd (RASA1(SH2dom.N-term.)): 472 ± 309 nM

CC(=O)N1CCC[C@H]1C(=O)N[C@@H](CCC(=O)O)C(=O)NCC(=O)N[C@@H](CC(=O)O)C(=O)N[C@@H](Cc1ccc(OP(=O)(O)O)cc1)C(=O)N[C@@H](CCC(=O)O)C(=O)N[C@@H](CCC(=O)O)C(=O)N[C@H](C(=O)N[C@@H](CC(C)C)C(=O)N[C@@H](CCC(=O)O)C(N)=O)C(C)C [Ac-PEGDpYEEVLE-NH2] (Ac-PEGD[pY]EEVLE-NH2)
Kd (FGR): 1820 ± 510 nM
Kd (LYN): 765 ± 141 nM

CC[C@H](C)[C@H](NC(=O)[C@@H](NC(=O)[C@H](CC(C)C)NC(=O)[C@H](CO)NC(=O)[C@H](CCCCN)NC(C)=O)[C@@H](C)O)C(=O)N[C@@H](Cc1ccc(OP(=O)(O)O)cc1)C(=O)N[C@@H](C)C(=O)N[C@@H](CCC(N)=O)C(=O)N[C@H](C(=O)N[C@@H](CCC(N)=O)C(=O)N[C@@H](CCCCN)C(N)=O)C(C)C [Ac-KSLTIpYAQVQK-NH2] (Ac-KSLTI[pY]AQVQK-NH2)
Kd (SH2D1B): 0.14 ± 0.03 nM

Reference: paper PMC12951562, “SH2scan: Mapping SH2 Domain-Ligand Binding Selectivity for Inhibitors and Degraders” (Journal of Medicinal Chemistry, 2026)
